Blank lines part the entries; values can stand above or below the compound they belong to.
Experiments:
[1] = solubility in water; format: physicochemical
[2] = pharmacokinetic assay in rats; format: in vivo, Sprague-Dawley (SD) rats; details: for AUC(0-t) / half-life / MRT inf / Cmax: single; for AUC(0-t): read-out: Area under curve AUC0-t; for half-life: read-out: Half life t1/2 (converted); for MRT inf: read-out: Resistance time MRT0-∞; for Cmax: read-out: Plasma concentration Cmax
Procedure: (§1) In the pharmacokinetic assay of the compound of Example 1 of the present invention, Sprague-Dawley (SD) rats were used as test animals. The compound of Example 1 was administrated intragastrically and intravenously to rats, then the drug concentration in the plasma at different time points was determined by a LC/MS/MS method to study the pharmacokinetic behavior and to evaluate the pharmacokinetic characteristics of the compound of the present invention in rats.

[3] = special stability study of crystal form I (grinding, heating, pressing); format: physicochemical
From the text: Crystal form I of the compound of formula (I) prepared according to the method of Example 1 was ground, heated and pressed.

[4] = pharmacokinetic assay in dogs; format: in vivo, Beagle dogs; details: for AUC(0-t) / half-life / MRT inf / Cmax: single; for AUC(0-t): read-out: Area under curve AUC0-t; for half-life: read-out: Half life t1/2 (converted); for MRT inf: read-out: Resistance time MRT0-∞; for Cmax: read-out: Plasma concentration Cmax
Procedure: as §1, with “Beagle dogs” for “Sprague-Dawley (SD) rats”, “dogs,” for “rats,”, “dogs.” for “rats.”

[5] = stability of crystal form I under lighting, heating and high humidity (purity by HPLC); format: physicochemical; details: for stability: spread flat in the air, lighting, high temperature and high humidity
Procedure: The sample of crystal form I prepared in Example 1 was spread flat in the air to test its stability under conditions of lighting (4500 Lux), heating (40° C., 60° C.), and high humidity (RH 75%, RH 90%). Samplings were carried out on Day 5 and Day 10.

[6] = Sprague-Dawley, rat, plasma, intravenous, 3 mg/kg
[7] = Sprague-Dawley, rat, plasma, po, intragastric, 3 mg/kg
[8] = Sprague-Dawley, rat, plasma, po, intragastric, 9 mg/kg
[9] = Sprague-Dawley, rat, plasma, po, intragastric, 27 mg/kg
[10] = Beagle, dog, plasma, intravenous, 3 mg/kg
[11] = Beagle, dog, plasma, po, intragastric, 3 mg/kg
[12] = Beagle, dog, plasma, po, intragastric, 9 mg/kg
[13] = beagle, dog, plasma, po, intragastric, 27 mg/kg

- solubility in water [1]: almost insoluble
Structure (SMILES): O=C(O)C1(Sc2ccnc3ccc(Br)cc23)CCC1 [1-((6-bromoquinolin-4-yl)thio)cyclobutane-1-carboxylic acid, reference compound]

- oral absorption [2]: well absorbed
- AUC(0-t) [2, 6]: 56000 ± 19600 ng·h/mL
- half-life [2, 6]: 5.5 ± 1.88 h
- MRT inf [2, 6]: 6.18 ± 1.33 h
- AUC(0-t) [2, 7]: 41500 ± 27200 ng·h/mL
- half-life [2, 7]: 4.58 ± 0.85 h
- Cmax [2, 7]: 10500 ± 7900 ng/mL
- MRT inf [2, 7]: 6.15 ± 1.51 h
- AUC(0-t) [2, 8]: 119000 ± 65000 ng·h/mL
- half-life [2, 8]: 5.07 ± 2.08 h
- Cmax [2, 8]: 22000 ± 11000 ng/mL
- MRT inf [2, 8]: 7.11 ± 1.75 h
- AUC(0-t) [2, 9]: 336000 ± 241000 ng·h/mL
- half-life [2, 9]: 4.59 ± 0.5 h
- Cmax [2, 9]: 38800 ± 17000 ng/mL
- MRT inf [2, 9]: 7.09 ± 1.33 h
- bioavailability ([2]; Sprague-Dawley, rat, plasma, po, single intragastric 3 mg/kg, from mean AUC0-t, read-out: absolute bioavailability): 74.1%
- solubility [1]: 140 µg/mL
- DSC peak after treatment ([3]; Grinding treatment for 10 minutes): >300 °C
- DSC peak after treatment ([3]; Heating treatment for 3 hours at 80° C.): >300 °C
- DSC peak after treatment ([3]; Pressing treatment): >300 °C
- stability of the crystal form ([3]; grinding, heating and pressure): stable
- oral absorption [4]: well absorbed
- AUC(0-t) [4, 10]: 14500 ± 3600 ng·h/mL
- half-life [4, 10]: 4.51 ± 2.25 h
- MRT inf [4, 10]: 3.57 ± 1.89 h
- AUC(0-t) [4, 11]: 8630 ± 3440 ng·h/mL
- half-life [4, 11]: 3.49 ± 1.2 h
- Cmax [4, 11]: 8450 ± 2100 ng/mL
- MRT inf [4, 11]: 3.03 ± 1.03 h
- AUC(0-t) [4, 12]: 37500 ± 10800 ng·h/mL
- half-life [4, 12]: 3.83 ± 2 h
- Cmax [4, 12]: 27600 ± 4800 ng/mL
- MRT inf [4, 12]: 3.48 ± 1.36 h
- AUC(0-t) [4, 13]: 105000 ± 30900 ng·h/mL
- half-life [4, 13]: 4.31 ± 1.6 h
- Cmax [4, 13]: 78600 ± 22000 ng/mL
- MRT inf [4, 13]: 3.38 ± 0.96 h
- bioavailability ([4]; beagle, dog, plasma, po, single intragastric 3 mg/kg, from mean AUC0-t, read-out: absolute bioavailability): 59.5%
- purity as detected by HPLC ([5]; 40° C., day 0): 99.76%
- purity as detected by HPLC ([5]; 40° C., day 5): 99.73%
- purity as detected by HPLC ([5]; 40° C., day 10): 99.73%
- purity as detected by HPLC ([5]; 60° C., day 0): 99.76%
- purity as detected by HPLC ([5]; 60° C., day 5): 99.73%
- purity as detected by HPLC ([5]; 60° C., day 10): 99.71%
- purity as detected by HPLC ([5]; Lighting (4500 Lux), day 0): 99.76%
- purity as detected by HPLC ([5]; Lighting (4500 Lux), day 5): 99.75%
- purity as detected by HPLC ([5]; Lighting (4500 Lux), day 10): 99.70%
- purity as detected by HPLC ([5]; RH 75%, day 0): 99.76%
- purity as detected by HPLC ([5]; RH 75%, day 5): 99.74%
- purity as detected by HPLC ([5]; RH 75%, day 10): 99.74%
- purity as detected by HPLC ([5]; RH 90%, day 0): 99.76%
- purity as detected by HPLC ([5]; RH 90%, day 5): 99.74%
- purity as detected by HPLC ([5]; RH 90%, day 10): 99.73%
- stability ([5]; listed as crystal form I): good stability
- stability ([5]; listed as crystal form I of the compound of formula (I)): stable
Structure (SMILES): O=C([O-])C1(Sc2ccnc3ccc(Br)cc23)CCC1.[Na+] [Example 1, sodium 1-((6-bromoquinolin-4-yl)thio)cyclobutane-1-carboxylate]

— patent US10196361B2, “Sodium salt of uric acid transporter inhibitor and crystalline form thereof” (Jiangsu Hengrui Medicine Co., Ltd., priority 2015, dated 2019)
